Source: US9458133B2, “Isoquinolines as potassium ion channel inhibitors” (BRISTOL-MYERS SQUIBB COMPANY, priority 2013, dated 2016)
Values joined by “and” are separate entries in the source; they are usually repeats but may differ in a detail not shown here. Equal values may be shown once.

target: T1, human Kv 1.5 (Homo sapiens, UniProt P22460); assay: Block of IKur current in patch clamped L-929 cells stably expressing human Kv1.5; type: cell-based; settings: 0.3 μM; patch clamped mammalian L-929 cells expressing human Kv1.5 (IKur)
T1 construct: expressed in transfected cells; host or cells: mouse L-929 fibroblasts stably expressing human Kv1.5
T1 sequence (P22460 whole entry): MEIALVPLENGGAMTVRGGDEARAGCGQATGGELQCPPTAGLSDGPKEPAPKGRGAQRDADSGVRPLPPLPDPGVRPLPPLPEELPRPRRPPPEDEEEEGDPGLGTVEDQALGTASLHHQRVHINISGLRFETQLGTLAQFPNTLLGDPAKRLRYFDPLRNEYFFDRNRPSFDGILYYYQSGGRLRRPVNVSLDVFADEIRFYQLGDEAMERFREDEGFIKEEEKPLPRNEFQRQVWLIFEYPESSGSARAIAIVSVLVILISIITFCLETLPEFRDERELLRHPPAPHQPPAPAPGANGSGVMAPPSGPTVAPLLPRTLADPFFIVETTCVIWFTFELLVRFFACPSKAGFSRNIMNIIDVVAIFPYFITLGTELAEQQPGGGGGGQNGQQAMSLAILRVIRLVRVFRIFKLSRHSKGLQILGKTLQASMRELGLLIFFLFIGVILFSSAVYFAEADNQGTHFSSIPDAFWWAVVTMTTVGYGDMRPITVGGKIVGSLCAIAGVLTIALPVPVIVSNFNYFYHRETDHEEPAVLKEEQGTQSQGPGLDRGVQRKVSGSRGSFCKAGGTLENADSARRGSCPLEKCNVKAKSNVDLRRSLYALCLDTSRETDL
Source text: Synders, D. J. et al., “A rapidly activating and slowly inactivating potassium channel cloned from human heart: functional analysis after stable mammalian cell culture expression”, J. Gen. Physiol., 101:513-543 (1993). […]

SMILES | KV1_5% Inh L929 @0.3 μM
NC(=O)c1cncc(-c2cc3cccc(-c4ccccc4)c3c(NCc3ccccn3)n2)c1 [Example 9, 5-(8-Phenyl-1-((pyridin-2-ylmethyl)amino)isoquinolin-3-yl)nicotinamide] | 81.32% and 50.45%

same assay, conditions: L929, 0.3 μM; patch clamped mammalian L-929 cells expressing human Kv1.5 (IKur); read-out: KV1_5% Inh L929 @0.3 μM

SMILES | inhibition at 0.3 µM [%]
NS(=O)(=O)c1cncc(-c2cc3cccc(-c4ccccc4)c3c(N[C@H]3CCN(Cc4ccccc4)C3)n2)c1 [Example 71, (S)-5-(1-(1-benzylpyrrolidin-3-ylamino)-8-phenylisoquinolin-3-yl)pyridine-3-sulfonamide] | 67.7
N#Cc1nc(NCc2ccccc2)c2c(-c3ccccc3)cccc2c1-c1cncc(S(N)(=O)=O)c1 [Example 16, 5-(1-(Benzylamino)-3-cyano-8-phenylisoquinolin-4-yl)pyridine-3-sulfonamide] | 88.6
CS(=O)(=O)Nc1ccc(-c2cc3cccc(-c4ccccc4)c3c(NCc3ccccn3)n2)cn1 [Example 63, N-(5-(8-phenyl-1-(pyridin-2-ylmethylamino)isoquinolin-3-yl)pyridin-2-yl)methanesulfonamide] | 53.2
Cc1nc(NCc2ccccc2)c2c(-c3ccccc3)cccc2c1-c1cncc(S(N)(=O)=O)c1 [Example 14, 5-(1-(Benzylamino)-3-methyl-8-phenylisoquinolin-4-yl)pyridine-3-sulfonamide] | 93.2
NC(=O)c1ccc(-c2cc3cccc(-c4ccccc4)c3c(NCc3ccccn3)n2)cc1 [Example 42, 4-(8-phenyl-1-(pyridin-2-ylmethylamino)isoquinolin-3-yl)benzamide] | 60.3
CC(=O)Nc1ccc(-c2cc3cccc(-c4ccccc4)c3c(NCc3ccccn3)n2)cc1 [Example 31, N-(4-(8-phenyl-1-(pyridin-2-ylmethylamino)isoquinolin-3-yl)phenyl)acetamide] | 15.2
NS(=O)(=O)c1cncc(-c2cc3cccc(-c4ccccc4)c3c(NCc3cccc(Cl)c3Cl)n2)c1 [Example 43, 5-(1-(2,3-dichlorobenzylamino)-8-phenylisoquinolin-3-yl)pyridine-3-sulfonamide] | 16.3
CC(C)C(Nc1nc(Cl)c(-c2cncc(S(N)(=O)=O)c2)c2cccc(-c3ccccc3)c12)c1ccccn1 (stereo not shown) [Example 80, 5-(3-chloro-1-(2-methyl-1-(pyridin-2-yl)propylamino)-8-phenylisoquinolin-4-yl)pyridine-3-sulfonamide] | 92.5
CC(C)CNc1nc(-c2cncc(S(N)(=O)=O)c2)cc2cccc(-c3ccccc3)c12 [Example 24, 5-(1-(isobutylamino)-8-phenylisoquinolin-3-yl)pyridine-3-sulfonamide] | 41.5
COc1cc(-c2c(Cl)nc(NCc3ccccn3)c3c(-c4ccccc4)cccc23)ccn1 [Example 62, 3-chloro-4-(2-methoxypyridin-4-yl)-8-phenyl-N-(pyridin-2-ylmethyl)isoquinolin-1-amine] | 95.6
Nc1ccc(-c2cc3cccc(-c4ccccc4)c3c(NCc3ccccn3)n2)cn1 [Example 58, 3-(6-aminopyridin-3-yl)-8-phenyl-N-(pyridin-2-ylmethyl)isoquinolin-1-amine] | 22.8
NS(=O)(=O)c1cncc(-c2cc3cccc(-c4ccccc4)c3c(NCc3ccccc3Cl)n2)c1 [Example 37, 5-(1-(2-chlorobenzylamino)-8-phenylisoquinolin-3-yl)pyridine-3-sulfonamide] | 34.2
NS(=O)(=O)c1cncc(-c2c(Cl)nc(NCc3ccccc3)c3c(-c4ccccc4)cccc23)c1 [Example 75, 5-(1-(benzylamino)-3-chloro-8-phenylisoquinolin-4-yl)pyridine-3-sulfonamide] | 97.3
NS(=O)(=O)c1cncc(-c2cc3cccc(-c4ccc(F)cc4)c3c(NCc3ccccn3)n2)c1 [Example 21, 5-(8-(4-fluorophenyl)-1-(pyridin-2-ylmethylamino)isoquinolin-3-yl)pyridine-3-sulfonamide] | 50.6
NS(=O)(=O)c1cncc(-c2cc3cccc(-c4ccccc4)c3c(NCc3ncccc3F)n2)c1 [Example 22, 5-(1-((3-fluoropyridin-2-yl)methylamino)-8-phenylisoquinolin-3-yl)pyridine-3-sulfonamide] | 94
Nc1cncc(-c2cc3cccc(-c4ccccc4)c3c(NCc3ccccn3)n2)c1 [Example 2, 3-(5-Aminopyridin-3-yl)-8-phenyl-N-(pyridin-2-ylmethyl)isoquinolin-1-amine] | 66.2
CS(=O)(=O)Nc1cccc(-c2c(Cl)nc(NCc3ccccn3)c3c(-c4ccccc4)cccc23)c1 [Example 70, N-(3-(3-chloro-8-phenyl-1-(pyridin-2-ylmethylamino)isoquinolin-4-yl)phenyl)methanesulfonamide] | 95.7
NS(=O)(=O)c1cncc(-c2cc3cccc(-c4ccccc4)c3c(NCc3csc(-c4ccccc4)n3)n2)c1 [Example 72, 5-(8-phenyl-1-((2-phenylthiazol-4-yl)methylamino)isoquinolin-3-yl)pyridine-3-sulfonamide] | 16.1

SMILES | inhibition at 0.3 µM [%]
NC(=O)CC(=O)Nc1cccc(-c2c(Cl)nc(NCc3ccccn3)c3c(-c4ccccc4)cccc23)c1 [Example 13, N1-(3-(3-Chloro-8-phenyl-1-(pyridin-2-ylmethylamino)isoquinolin-4-yl)phenyl)malonamide] | 97.7
NS(=O)(=O)c1cccc(-c2c(Cl)nc(NCc3ccccn3)c3c(-c4ccccc4)cccc23)c1 [Example 84, 3-(3-chloro-8-phenyl-1-(pyridin-2-ylmethylamino)isoquinolin-4-yl)benzenesulfonamide] | 98.4
CC(=O)Nc1cncc(-c2c(Cl)nc(NCc3ccccn3)c3c(-c4ccccc4)cccc23)c1 [Example 46, N-(5-(3-chloro-8-phenyl-1-(pyridin-2-ylmethylamino)isoquinolin-4-yl)pyridin-3-yl)acetamide] | 98.4
NC(=O)Nc1cncc(-c2c(Cl)nc(NCc3ccccn3)c3c(-c4ccccc4)cccc23)c1 [Example 48, 1-(5-(3-chloro-8-phenyl-1-(pyridin-2-ylmethylamino)isoquinolin-4-yl)pyridin-3-yl)urea] | 98.6
CC(C)CCNc1nc(-c2cncc(S(N)(=O)=O)c2)cc2cccc(-c3ccccc3)c12 [Example 25, 5-(1-(isopentylamino)-8-phenylisoquinolin-3-yl)pyridine-3-sulfonamide] | 53.2
NS(=O)(=O)c1cncc(-c2cc3cccc(-c4ccccc4)c3c(NCc3ccccn3)n2)c1 [Example 1, 5-(8-Phenyl-1-(pyridin-2-ylmethylamino)isoquinolin-3-yl)pyridine-3-sulfonamide] | 95.1
Cc1n[nH]c(C)c1-c1cc2cccc(-c3ccccc3)c2c(NCc2ccccn2)n1 [Example 20, 3-(3,5-dimethyl-1H-pyrazol-4-yl)-8-phenyl-N-(pyridin-2-ylmethyl)isoquinolin-1-amine] | 64.5
NS(=O)(=O)c1cncc(-c2c(Cl)nc(NCC3CCOCC3)c3c(-c4ccccc4)cccc23)c1 [Example 29, 5-(3-chloro-8-phenyl-1-((tetrahydro-2H-pyran-4-yl)methylamino)isoquinolin-4-yl)pyridine-3-sulfonamide] | 88.4
NS(=O)(=O)c1ccc(-c2c(Cl)nc(NCc3ccccn3)c3c(-c4ccccc4)cccc23)cc1 [Example 55, 4-(3-chloro-8-phenyl-1-(pyridin-2-ylmethylamino)isoquinolin-4-yl)benzenesulfonamide] | 97.6
Nc1ccc(-c2c(Cl)nc(NCc3ccccn3)c3c(-c4ccccc4)cccc23)cn1 [Example 77, 4-(6-aminopyridin-3-yl)-3-chloro-8-phenyl-N-(pyridin-2-ylmethyl)isoquinolin-1-amine] | 99
NS(=O)(=O)c1cncc(-c2cc3cccc(-c4ccccc4)c3c(N[C@H]3CCC[C@@H]3OCc3ccccc3)n2)c1 [Example 73, 5-(1-((1S,2S)-2-(benzyloxy)cyclopentylamino)-8-phenylisoquinolin-3-yl)pyridine-3-sulfonamide] | 56.3
NC(=O)c1cccc(-c2c(Cl)nc(NCc3ccccn3)c3c(-c4ccccc4)cccc23)c1 [Example 66, 3-(3-chloro-8-phenyl-1-(pyridin-2-ylmethylamino)isoquinolin-4-yl)benzamide] | 99.3
CS(=O)(=O)Nc1cccc(-c2cc3cccc(-c4ccccc4)c3c(NCc3ccccn3)n2)c1 [Example 35, N-(3-(8-phenyl-1-(pyridin-2-ylmethylamino)isoquinolin-3-yl)phenyl)methanesulfonamide] | 36.2
NC(=O)c1cccc(-c2cc3cccc(-c4ccccc4)c3c(NCc3ccccn3)n2)c1 [Example 41, 3-(8-phenyl-1-(pyridin-2-ylmethylamino)isoquinolin-3-yl)benzamide] | 54.1
NS(=O)(=O)c1cncc(-c2cnc(NCc3ccccc3)c3c(-c4ccccc4)cccc23)c1 [Example 15, 5-(1-(Benzylamino)-8-phenylisoquinolin-4-yl)pyridine-3-sulfonamide] | 96.2
NS(=O)(=O)c1cncc(-c2cnc(NCc3ccccn3)c3c(-c4ccccc4)cccc23)c1 [Example 11, 5-(8-Phenyl-1-(pyridin-2-ylmethylamino)isoquinolin-4-yl)pyridine-3-sulfonamide] | 98.9
N#Cc1ccc(-c2c(Cl)nc(NCc3ccccn3)c3c(-c4ccccc4)cccc23)cc1 [Example 56, 4-(3-chloro-8-phenyl-1-(pyridin-2-ylmethylamino)isoquinolin-4-yl)benzonitrile] | 89.7
NS(=O)(=O)c1ccc(-c2cnc(NCc3ccccn3)c3c(-c4ccccc4)cccc23)cc1 [Example 76, 4-(8-phenyl-1-(pyridin-2-ylmethylamino)isoquinolin-4-yl)benzenesulfonamide] | 97.2
